In series [1] the test system is domestic shorthair (DSH) breed cats. The series is described as follows: clean tooth model, 28-day feeding study in cats: gingivitis, plaque and calculus indices. The class given is in vivo. The following applies: treatment diet 2.3 g STAY-C 50/kg cat food, 28 days. How it is done:
(§1) 18 domestic shorthair (DSH) breed cats (mean age 3.83±1.85 years, mean body weight 4.2+1.1 kg) were divided by age and gender into two equal groups (n=9) to be fed for 28 days with a • control diet or • treatment diet (2.3 g STAY-C® 50/kg cat food) As the “clean tooth” model was used, all cats received a dental cleaning consisting of ultrasonic scaling and, where necessary, using an abrasor after […], before the beginning of the study. The animals were then treated with the diets for 28 days. The analysis of the different indices were carried out according known methods.

The test system is the same in series [2]. In words: 28-day feeding study in cats: systemic health, body weight, blood counts, serum biochemistry. To be noted: treatment diet 2.3 g STAY-C 50/kg cat food, 28 days. Type of series: in vivo. How it is done: as §1

As to `O=C1O[C@H]([C@@H](O)CO)C(O)=C1OP(=O)(O)O.[Na+].[Na+].[Na+]` [STAY-C®50, trisodium L-ascorbic acid-2-monophosphate], in series [1], the “Calculus indices, reduction compared to control group” value is “about 14%” and the Plaque indices entry was “reduced significantly”. For the same compound, the Gingivitis indices entry in series [1] (control group 28% increase) was “not increased”. Also, the “changes in systemic health, body weight, blood counts or serum biochemistry” value in series [2] is given as “No changes”.

The values are drawn from patent publication US20130230470A1, “PET FOOD COMPOSITION” (DSM IP ASSETS B.V., priority 2003, published 2013).
